# According to ChEMBL document CHEMBL2034869, “Mapping pilicide anti-virulence effect in Escherichia coli, a comprehensive structure-activity study” (Bioorg Med Chem, 2012):
# System: Escherichia coli
# Assay: Inhibition of type-1 pili-dependent biofilm formation in Escherichia coli […]
# Format: functional, organism-based
# Settings: not given; call rule not given here
row,Structure (SMILES),EC50
1,COc1ccc2c(Cc3cc(=O)n4c(c3C3CC3)SC[C@H]4C(=O)O)cc(=O)oc2c1,Not Active
2,COc1ccc2c(Cc3cc(=O)n4c(c3-c3ccccc3)SC[C@H]4C(=O)O)cc(=O)oc2c1,Not Active
3,O=C([O-])[C@@H]1CSc2c(C3CC3)c(Cc3csc4ccccc34)cc(=O)n21.[Li+],Not Active
4,O=C([O-])[C@@H]1CSc2c(C3CC3)c(Cn3nnc4ccccc43)cc(=O)n21.[Li+],Not Active
5,CC(C)c1c(Cn2nnc3ccccc32)cc(=O)n2c1SC[C@H]2C(=O)[O-].[Li+],Not Active
6,COc1ccc2c(Cc3cc(=O)n4c(c3-c3cccs3)SC[C@H]4C(=O)O)cc(=O)oc2c1,Not Active
7,Cc1cccc(OCc2cc(=O)n3c(c2-c2cccnc2)SC[C@H]3C(=O)[O-])c1C.[Li+],Not Active
8,O=C([O-])[C@@H]1CSc2c(-c3cccnc3)c(Cn3nnc4ccccc43)cc(=O)n21.[Li+],Not Active
9,O=C([O-])[C@@H]1CSc2c(-c3cccnc3)c(Cc3ccc4c(c3)OCO4)cc(=O)n21.[Li+],Not Active
10,COc1c(Cc2csc3ccccc23)cc(=O)n2c1SC[C@H]2C(=O)[O-].[Li+],Not Active
11,COc1c(Cc2cccc3ccccc23)cc(=O)n2c1SC[C@H]2C(=O)[O-].[Li+],Not Active
12,COc1c(Cc2ccc3c(c2)OCO3)cc(=O)n2c1SC[C@H]2C(=O)O,Not Active
13,O=C([O-])[C@@H]1CSc2c(C3CC3)c(Cn3ccc4ccccc43)cc(=O)n21.[Li+],Not Active

# Same assay, conditions: Escherichia coli, UT189; read-out: EC50
row,Structure (SMILES),EC50
1,O=C(O)[C@@H]1CSc2c(C3CC3)c(Cc3cccc4ccccc34)cc(=O)n21,250 µM
2,Cc1cccc(CCc2cc(=O)n3c(c2-c2ccccc2)SC[C@H]3C(=O)O)c1,40 µM
3,Cc1cccc(OCc2cc(=O)n3c(c2-c2ccccc2)SC[C@H]3C(=O)O)c1C,36 µM
4,Cc1cccc(CCc2cc(=O)n3c(c2C(C)C)SC[C@H]3C(=O)O)c1,100 µM
5,CC(C)c1c(Cc2cccc3ccccc23)cc(=O)n2c1SC[C@H]2C(=O)O,100 µM
6,O=C(O)[C@@H]1CSc2c(-c3cccs3)c(Cc3cccc4ccccc34)cc(=O)n21,39 µM
7,O=C(O)[C@@H]1CSc2c(-c3cccs3)c(COc3cccc4ccccc34)cc(=O)n21,14 µM
8,Cc1cccc(OCc2cc(=O)n3c(c2-c2ccc4c(c2)OCO4)SC[C@H]3C(=O)O)c1C,27 µM
9,O=C(O)[C@@H]1CSc2c(-c3ccc4c(c3)OCO4)c(Cc3csc4ccccc34)cc(=O)n21,67 µM
10,O=C(O)[C@@H]1CSc2c(-c3ccc4c(c3)OCO4)c(COc3cccc4ccccc34)cc(=O)n21,21 µM
11,Cc1cccc(CCc2cc(=O)n3c(c2-c2c[nH]c4ccccc24)SC[C@H]3C(=O)O)c1,74 µM
12,O=C(O)[C@@H]1CSc2c(-c3c[nH]c4ccccc34)c(COc3cccc4ccccc34)cc(=O)n21,12 µM
13,O=C(O)[C@@H]1CSc2c(-c3c[nH]c4ccccc34)c(Cc3ccc4c(c3)OCO4)cc(=O)n21,39 µM
14,O=C(O)[C@@H]1CSc2c(-c3cccc(C(F)(F)F)c3)c(Cc3cccc(COc4cccc5ccccc45)c3)cc(=O)n21,1.9 µM
15,O=C(O)[C@@H]1CSc2c(C3CC3)c(Cc3cccc(COc4cccc5ccccc45)c3)cc(=O)n21,1.4 µM
16,O=C(O)[C@@H]1CSc2c(-c3ccccc3)c(Cc3cccc4ccccc34)cc(=O)n21,40 µM
17,O=C(O)[C@@H]1CSc2c(-c3c[nH]c4ccccc34)c(Cc3cccc4ccccc34)cc(=O)n21,31 µM
18,Cn1cc(-c2c(COc3cccc4ccccc34)cc(=O)n3c2SC[C@H]3C(=O)O)c2ccccc21,10 µM
19,Cn1cc(-c2c(COc3cccc4ccccc34)cc(=O)n3c2SC[C@H]3C(=O)NS(C)(=O)=O)c2ccccc21,9 µM
20,Cn1cc(-c2c(COc3cccc4ccccc34)cc(=O)n3c2OC[C@H]3C(=O)O)c2ccccc21,18 µM
21,O=C(O)[C@@H]1COc2c(-c3ccc4c(c3)OCO4)c(COc3cccc4ccccc34)cc(=O)n21,19 µM
22,O=C(O)[C@@H]1COc2c(-c3cccs3)c(Cc3cccc4ccccc34)cc(=O)n21,117 µM

row,Structure (SMILES),EC50
1,Cn1cc(-c2c(Cc3cccc(COc4cccc5ccccc45)c3)cc(=O)n3c2SC[C@H]3C(=O)O)c2ccccc21,1.1 µM
2,O=C(O)[C@@H]1CSc2c(-c3cccc(C(F)(F)F)c3)c(Cc3c4ccccc4cc4ccccc34)cc(=O)n21,3 µM
3,Cn1cc(-c2c(COc3cccc(Oc4ccccc4)c3)cc(=O)n3c2SC[C@H]3C(=O)O)c2ccccc21,2.1 µM
4,O=C(O)[C@@H]1CSc2c(-c3cccc(C(F)(F)F)c3)c(COc3cccc(Oc4ccccc4)c3)cc(=O)n21,4.3 µM
5,O=C(O)[C@@H]1CSc2c(C3CC3)c(COc3cccc(Oc4ccccc4)c3)cc(=O)n21,39 µM
6,Cn1cc(-c2c(COc3cccc4ccccc34)cc(=O)n3c2S[C@H](c2ccccc2)[C@H]3C(=O)O)c2ccccc21,1 µM
7,O=C(O)[C@@H]1[C@@H](c2ccccc2)Sc2c(-c3ccc4c(c3)OCO4)c(COc3cccc4ccccc34)cc(=O)n21,1.2 µM
8,O=C(O)[C@@H]1[C@@H](c2ccccc2)Sc2c(-c3cccs3)c(Cc3cccc4ccccc34)cc(=O)n21,0.4 µM
9,CO[C@H]1Sc2c(-c3cn(C)c4ccccc34)c(COc3cccc4ccccc34)cc(=O)n2[C@@H]1C(=O)O,2.5 µM
10,CO[C@H]1Sc2c(-c3ccc4c(c3)OCO4)c(COc3cccc4ccccc34)cc(=O)n2[C@@H]1C(=O)O,30 µM
11,CO[C@H]1Sc2c(-c3cccs3)c(Cc3cccc4ccccc34)cc(=O)n2[C@@H]1C(=O)O,92 µM
12,Cn1cc(-c2c(COc3cccc4ccccc34)c(CN3CCOCC3)c(=O)n3c2SC[C@H]3C(=O)O)c2ccccc21,18 µM
13,O=C(O)[C@@H]1CSc2c(-c3ccc4c(c3)OCO4)c(COc3cccc4ccccc34)c(CN3CCOCC3)c(=O)n21,32 µM
14,O=C(O)[C@@H]1CSc2c(-c3cccs3)c(Cc3cccc4ccccc34)c(CN3CCOCC3)c(=O)n21,88 µM
15,Cn1cc(-c2c(COc3cccc4ccccc34)c(CO)c(=O)n3c2SC[C@H]3C(=O)O)c2ccccc21,16 µM
16,O=C(O)[C@@H]1CSc2c(-c3ccc4c(c3)OCO4)c(COc3cccc4ccccc34)c(CO)c(=O)n21,30 µM
17,O=C(O)[C@@H]1CSc2c(-c3cccs3)c(Cc3cccc4ccccc34)c(CO)c(=O)n21,250 µM
18,Cc1cccc(-c2sc3c(-c4cn(C)c5ccccc45)c(COc4cccc5ccccc45)c(CN4CCOCC4)c(=O)n3c2C(=O)O)c1,5 µM
19,Cc1cccc(-c2sc3c(-c4ccc5c(c4)OCO5)c(COc4cccc5ccccc45)c(CN4CCOCC4)c(=O)n3c2C(=O)O)c1,5 µM
20,Cc1cccc(-c2sc3c(-c4cn(C)c5ccccc45)c(COc4cccc5ccccc45)cc(=O)n3c2C(=O)O)c1,86 µM
21,Cc1cccc(-c2sc3c(-c4ccc5c(c4)OCO5)c(COc4cccc5ccccc45)cc(=O)n3c2C(=O)O)c1,20 µM
